Measurements taken from ChEMBL document CHEMBL1759957, “Synthesis and antibacterial evaluation of novel 8-fluoro Norfloxacin derivatives as potential probes for methicillin and vancomycin-resistant Staphylococcus aureus” (2011).
In brackets after ≈: the same amount, converted by molar mass.

Tests used:
Assay in all cases: microbe, parasite or virus in culture
Format in all cases: functional
Klebsiella pneumoniae = settings: ATCC 27736, 24 h
Description: Antibacterial activity against Klebsiella pneumoniae ATCC 27736 after 24 hrs by spectrophotometry

Staphylococcus aureus [1] = settings: ATCC 25923, 24 h
Description: Antibacterial activity against methicillin- resistant Staphylococcus aureus ATCC 25923 after 24 hrs by spectrophotometry

Staphylococcus aureus [2] = settings: ATCC 29213, 24 h
Description: Antibacterial activity against methicillin- resistant and vancomycin resistant Staphylococcus aureus ATCC 29213 after 24 hrs by spectrophotometry

| Structure (SMILES) | MIC (Klebsiella pneumoniae) | MIC (Staphylococcus aureus [1]) | MIC (Staphylococcus aureus [2]) |
| --- | --- | --- | --- |
| O=C(O)c1cn(C2CC2)c2cc(N3CCNCC3)c(F)cc2c1=O [CIPROFLOXACIN] | 0.19 µg/mL (≈ 0.573 µM) | 0.09 µg/mL (≈ 0.272 µM) | 0.38 µg/mL (≈ 1.15 µM) |
| CCn1cc(C(=O)O)c(=O)c2cc(F)c(N3CCNCC3)cc21 [NORFLOXACIN] | 0.39 µg/mL (≈ 1.22 µM) | 0.78 µg/mL (≈ 2.44 µM) | 1.56 µg/mL (≈ 4.89 µM) |
